Measured values: a melting point compilation (Tetko et al.; mined from patent text by program, amines drawn as free bases though some values may be those of a salt)

| Structure (SMILES) | melting point [°C] |
| --- | --- |
| FC(F)(F)c1ccccc1-c1nc(-c2ccccc2Cl)nn1CCCl | 66 to 68 |
| N#Cc1cnc2sc(-c3ccc(CN)cc3)cc2c1Nc1ccc2[nH]ccc2c1 | > 260 |
| CCOc1cc2c(cc1S(=O)(=O)NC(=O)NC)C(CNC(=O)c1cc(Cl)ccc1OC)CCO2 (stereo unspecified) | 207 to 208 |
| CC1=CC(=C(CC(C)CC(C)(C)C)c2cc(C)cc(C)c2OCc2ccccc2)C(O)C(C)=C1 (stereo unspecified) | 125 to 126 |
| Nc1ccc(C(=O)c2ccccn2)cc1N | 137 to 138 |
| CSc1ccc(Cl)c(C(=O)NCC23CC4CC(CC(C4)C2)C3)c1 | 126 to 127 |
| N=C(N)Nc1nc(CSCCNC(=O)c2cccc(NS(=O)(=O)c3ccccc3)c2)cs1 | 175 to 178 |
| Cc1cn2c(n1)Cc1cc3c(cc1C(c1ccc(N)cc1)=N2)OCO3 | 165 to 166 |
| Cc1cc(F)ccc1-c1c(O)c(C)c(-c2ccc(F)cc2)oc1=O | 191 to 193 |
| CCCCc1ccc(OCCN2CCN(c3cc(Cl)nnc3Cl)CC2)cc1 | 83 to 84 |
| CCC(C)C(C)CNc1cccc(-c2ccnc3c(C(=O)c4cccs4)cnn23)c1 (stereo unspecified) | 84 to 86 |
| N#Cc1ncn(Cc2ccccc2)c1C#N | 123 to 125 |
| CC(=O)OCc1cccc(N)c1I | 80 to 81 |
| O=Cc1ccc2c(c1)CCC2 | 85 to 86 |
| FC(F)(F)c1cc(-c2ccccc2)nc(N2CCNCC2)n1 | 130 |
| O=c1[nH]c2c(cnn2-c2ccccc2)c2ccccc12 | 280 |
| COc1c(N2CC(OC)C(C)(N)C2)c(F)cc2c(=O)c(C(=O)O)cn([C@@H]3C[C@@H]3F)c12 (stereo partly specified) | 150 to 151 |
| Cc1cc(C)cc(S(=O)c2cccc(N)c2C#N)c1 (stereo unspecified) | 190 to 191 |
| Cc1ccccc1NC(=O)Nc1ccc(CC(=O)ON2C(=O)CCC2=O)cc1 | 211 to 212 |
| CCCCN(CCCC)CCCOc1ccc(C(=O)c2c(C)oc3ccc([N+](=O)[O-])cc23)cc1 | 63 |
| CCOC(=O)C(=O)Nc1c([N+](=O)[O-])sc2ccc(Cl)cc12 | 126 to 128 |
| COC(=O)c1cc2c(C)ccc(C)c2n1C(C)=O | 92 to 93 |
| CCN1C(=O)C(OC(=O)C(C)(C)C)=C(c2c(C)cc(C)cc2C)C1=O | 91 |
| CN1CCN(C(=O)c2ccc(-n3nc(-c4ccccc4O)nc3-c3ccccc3O)cc2)CC1 | 226 to 229 |

| Structure (SMILES) | melting point [°C] |
| --- | --- |
| Nc1ncnc2c1c(-c1ccc(Oc3ccccc3)cc1)cn2C1CCCC1 | 178 to 179 |
| Cc1c(-c2ccc(OS(=O)(=O)NN(C)C)cc2)[nH]c2nccnc12 | 188 |
| c1ccc2c(c1)Cn1ncnc1-2 | 116 to 117 |
| C[C@@](O)(C(=O)N1CCC(C(=O)c2ccc(F)cc2)CC1)C(F)(F)F | 78 to 79 |
| COc1ccc(-c2nc(C)c([N+](=O)[O-])[nH]2)cc1 | 198 to 204 |
| O=C(O)c1cn(CCc2ccc(C(F)(F)F)cc2)c2cc(C3CC3)nn2c1=O | 225 to 230 |
| Cc1ccc(CC2CCN(C(=O)C(=O)Nc3ccc(NS(C)(=O)=O)cc3)CC2)cc1 | 179 to 181 |
| CSc1ncc(Sc2nc(C)c(CC(=O)O)s2)c(C(=O)O)n1 | 238 to 239 |
| CC(C)CC(=O)c1cc2ccncc2[nH]1 | 215 to 218 |
| CC(C)C(NC(=O)OCc1ccccn1)C(=O)NC(Cc1ccccc1)C(O)C(Cc1ccccc1)NC(=O)C(NC(=O)OCc1ccccn1)C(C)C (stereo unspecified) | 155 to 156 |
| COc1cc(OC)cc(C(=O)N2CCc3cc(O)ccc3C2)c1 | 170 to 171 |
| CCOC(=O)c1cn(CCO)c2c(F)c(F)c(F)cc2c1=O | 175 to 177 |
| CCc1nc2c(N)nc3ccccc3c2n1CCOCCNS(C)(=O)=O | 169 to 171 |
| COC(=O)Cc1cc(NC=O)cc(OC)n1 | 61 to 63 |
| CCCOC(=O)c1cc(=O)c2cc(OCc3cccc(OCc4ccc5ccccc5n4)c3)ccc2o1 | 109 to 110 |
| O=[N+]([O-])c1ccc(C2=NNC(=S)Cc3cc4c(cc32)OCO4)cc1 | 257 to 258 |
| O=c1c(Cl)c(Cl)cnn1-c1cc([N+](=O)[O-])c(Cl)cc1F | 168 |
| O=C(NCCCCCCCNC(=O)c1ccc(OC(Cl)(Cl)Cl)cc1)c1ccc(OC(Cl)(Cl)Cl)cc1 | 152 to 153 |
| CCc1c(C)nc2n1N=C(c1ccc(N)cc1)c1cc3c(cc1C2)OCO3 | 227 to 228 |
| CCCC(C(=O)O)C1(c2ccccc2)CC(O)=C(Sc2ccccc2C(C)C)C(=O)O1 (stereo unspecified) | 145 to 146 |
| CC(COc1c(-c2ccccc2)c(=O)oc2c(-c3ccccc3)cccc12)CN1CCOCC1 (stereo unspecified) | 120 to 121 |
| CCCCCCN1C(=O)C(=CC(=O)O)SC1=Nc1ccccc1 | 145 to 146 |
| CCOc1cc([N+](=O)[O-])ccc1N1C(=O)c2ccccc2C1=O | 204 to 206 |
| CC(=O)Nc1ccc([N+](=O)[O-])c(C)c1C(=O)O | 190 to 191 |

| Structure (SMILES) | melting point [°C] |
| --- | --- |
| Cc1cc(C#N)ccc1-c1cccc(-c2nc3cc(C#N)ccc3[nH]2)c1 | 247 to 250 |
| COc1ccc(CNc2nc(SC)ncc2C(=O)NCc2ccccn2)cc1Cl | 143 to 144 |
| CC(C)OC(=O)c1cc(-n2c(=O)[nH]c(CF)c(F)c2=O)c(F)cc1Cl | 171 to 173 |
| Cc1cc(Nc2ccnc(Nc3ccc(S(=O)(=O)N(C)C4CCCN(C)C4)cc3)n2)ccc1F (stereo unspecified) | 188 |
| COc1ccc(-c2cc(-c3ccccc3C(=O)O)no2)cc1 | 182 to 185 |
| CS(=O)CC1=C(c2ccccc2)C(=O)N(C(C)(C)C(=O)Nc2cc(F)ccc2F)CO1 (stereo unspecified) | 105 to 107 |
| OCCNc1nc(Cl)nc2c1ncn2C1CC(O)C(CO)O1 (stereo unspecified) | 167 to 168 |
| Clc1ccc(N2CCN(Cc3c[nH]c4ncccc34)CC2)nc1 | 196 to 198 |
| CNC(=O)C1(CCCN2CCCCC2)CC=CCC1c1ccccc1 (stereo unspecified) | 145 to 147 |
| COc1ccc(CC(SC)C(N)=O)cc1C(=O)NCc1ccc(C(F)(F)F)cc1 (stereo unspecified) | 152 to 154 |
| Cc1cc(Br)c(S(N)(=O)=O)cc1C(=O)O | 237 |
| CCOC(=O)c1cccc([N+](=O)[O-])c1NCc1ccc(-c2ccccc2C#N)cc1 | 119 to 120 |
| COC(=O)c1ncn2c1CN(C)C(=O)c1cc(F)ccc1-2 | 195 to 196 |
| NC(=O)c1cn2c(nc1=O)CCCCC2 | 219 |
| O=C1NC(=O)C(N2C(=O)c3ccccc3C2=O)CC1c1ccccc1 (stereo unspecified) | 228 to 231 |
| CNCC1(C2(O)CCCC2)Cc2cc3sccc3cc21 (stereo unspecified) | 166 to 169 |
| CSc1c(Cl)c(-c2cc(SC(C)C(=O)O)c(Cl)cc2Cl)nn1C (stereo unspecified) | 180 |
| CC(c1ccc2c(=O)c3ccccc3ccc2c1)C1N(c2ccccc2)CCN1c1ccccc1 (stereo unspecified) | 81 to 89 |
| CN(C)C=NS(=O)(=O)c1cc2ccncc2s1 | 169 to 171 |
| O=C(c1cccs1)c1cnn2c(-c3cccc(NCCc4ccccc4)c3)ccnc12 | 118 to 120 |
| COC(=O)C1Oc2ccc(Cl)cc2C(c2ccccc2)(c2ccccc2)O1 (stereo unspecified) | 172 |
| O=C1Nc2ccccc2Oc2sc3ccccc3c21 | 240 to 242 |
| O=S1(=O)N=CN(C2CC2)c2cc(F)cc(F)c21 | 167 to 168 |
